Results from patent US5902812A, “Pharmaceutical piperazine compounds” (Xenova Limited, priority 1994, dated 1999).
Where two headings read alike, the source gives them in different places. Blank lines part the entries; values can stand above or below the compound they belong to.

Target: PAI-1 (Homo sapiens, UniProt P05121)
Test: biochemical
Conditions: for inhibition at 20 µM / inhibition at 100 µM / inhibition at 6.25 µM / inhibition at 12.5 µM / inhibition at 25 µM / inhibition at 50 µM: read-out: Degree of inhibition in PAI chromogenic substrate assay
[1] = PAI chromogenic substrate assay, read-out: IC50

Sequence of PAI-1 (P05121 24-402): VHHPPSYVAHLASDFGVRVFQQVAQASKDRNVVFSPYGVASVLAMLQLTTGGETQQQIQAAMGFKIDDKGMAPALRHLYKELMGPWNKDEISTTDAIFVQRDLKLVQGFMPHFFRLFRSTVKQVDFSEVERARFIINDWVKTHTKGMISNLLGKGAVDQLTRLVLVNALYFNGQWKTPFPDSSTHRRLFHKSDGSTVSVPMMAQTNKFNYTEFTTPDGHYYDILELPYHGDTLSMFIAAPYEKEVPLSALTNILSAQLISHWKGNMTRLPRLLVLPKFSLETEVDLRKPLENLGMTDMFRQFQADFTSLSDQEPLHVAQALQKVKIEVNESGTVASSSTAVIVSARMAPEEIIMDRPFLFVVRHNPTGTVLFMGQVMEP
Experimental: In this assay, a compound is incubated with PAI-1 prior to addition to the tPA assay system. Inhibition of PAI-1 results in the production of plasmin from plasminogen. In turn, plasmin cleaves the chromogenic substrate S2251 (Kabi Vitrum) producing pNA (p-nitroaniline) which is detected spectrophotometrically at 405 nm (K. Nilsson et al, Fibrinolysis (1987) 1, 163-168).
Compounds of formula (A) were tested in a PAI chromogenic substrate assay. In the assay (K.Nilsson, Fibrinolysis (1987) 1, 163-168) each compound was incubated with PAI-1 prior to addition to the tPA assay system. […] In turn, the plasmin cleaved the chromogenic substrate S2251 (Kabi-Vitrum) producing pNA (p-nitroaniline) which was detected spectrophotometrically at 405 nm.

SMILES: CN(C)CCCOc1ccc(/C=c2\[nH]c(=O)/c(=C/c3cc([N+](=O)[O-])cc([N+](=O)[O-])c3)[nH]c2=O)cc1 [Compound 5381, (3Z,6Z)-6-(4-(3-Dimethylaminopropoxy)benzylidene)-3-(3,5-dinitrobenzylidene)-2,5-piperazinedione]
IC50 (IC50, PAI chromogenic substrate assay): 15 µM

SMILES: CN(C)CCCOc1ccc(/C=c2\[nH]c(=O)/c(=C/c3ccc(N)cc3)[nH]c2=O)cc1 [Compound 5260]
IC50 [1]: 17 µM

SMILES: CC(C)(C)CC(=O)Oc1ccc(/C=c2\[nH]c(=O)/c(=C/c3ccccc3)[nH]c2=O)cc1 [Compound 1889, (3Z,6Z)-6-Benzylidene-3-(4-(3,3-dimethylbutanoyloxy)benzylidene)-2,5-piperazinedione]
inhibition at 6.25 µM (6.25 μM): 0%
inhibition at 12.5 µM (12.5 μM): 3%
inhibition at 25 µM (25 μM): 15%
inhibition at 50 µM (50 μM): 38%
inhibition at 100 µM (100 μM): 49%

SMILES: CN(C)CCCOc1ccc(/C=c2\[nH]c(=O)/c(=C/c3ccc(Br)cc3)[nH]c2=O)cc1 [Compound 5360]
inhibition at 20 µM (20 μM (third part of Table 1)): 59%
IC50 [1]: 3.5 µM

SMILES: CN(C)CCOc1ccc(/C=c2\[nH]c(=O)/c(=C/c3ccc(F)cc3F)[nH]c2=O)cc1 [Compound 1977, (3Z,6Z)-3-(2,4-Difluorobenzylidene)-6-(4-(2-dimethylaminoethoxy)benzylidene)-2,5-piperazinedione]
inhibition at 6.25 µM (6.25 μM): 0%
inhibition at 12.5 µM (12.5 μM): 20%
inhibition at 25 µM (25 μM): 47%
inhibition at 50 µM (50 μM): 47%
inhibition at 100 µM (100 μM): 54%

SMILES: CN(C)CCCOc1ccc(/C=c2\[nH]c(=O)/c(=C/c3ccc(C(N)=O)cc3)[nH]c2=O)cc1 [Compound 5254, 4-((3Z,6Z)-6-(4-(3-Dimethylaminopropoxy)benzylidene)-2,5-dioxo-3-piperazinylidene)methylbenzamide]
Degree of inhibition in PAI chromogenic substrate assay (20 μM (third part of Table 1), 20 µM): 76%
inhibition at 100 µM (100 μM (third part of Table 1)): 79%
IC50 [1]: 35 µM

The remaining lines, values ahead:

Degree of inhibition in PAI chromogenic substrate assay (6.25 μM): 1%
Degree of inhibition in PAI chromogenic substrate assay (12.5 μM): 1%
Degree of inhibition in PAI chromogenic substrate assay (25 μM): 1%
Degree of inhibition in PAI chromogenic substrate assay (50 μM): 1%
Degree of inhibition in PAI chromogenic substrate assay (100 μM): 3%
SMILES: CN(C)CCOc1ccc(/C=c2\[nH]c(=O)/c(=C/c3ccccc3)[nH]c2=O)cc1OCCN(C)C [Compound 1949, (3Z,6Z)-3-Benzylidene-6-(3,4-di-(2-dimethylaminoethoxy)benzylidene)-2,5-piperazinedione]

inhibition at 20 µM (20 μM (third part of Table 1)): 10%
inhibition at 100 µM (100 μM (third part of Table 1)): 46%
SMILES: Cc1ccccc1/C=c1\[nH]c(=O)/c(=C/c2ccc(OCCCN(C)C)cc2)[nH]c1=O [Compound 5186, (3Z,6Z)-6-(4-(3-Dimethylaminopropoxy)benzylidene)-3-(2-methylbenzylidene)-2,5-piperazinedione]

Degree of inhibition in PAI chromogenic substrate assay (6.25 μM): 3%
Degree of inhibition in PAI chromogenic substrate assay (12.5 μM): 0%
Degree of inhibition in PAI chromogenic substrate assay (25 μM): 11%
Degree of inhibition in PAI chromogenic substrate assay (50 μM): 41%
Degree of inhibition in PAI chromogenic substrate assay (100 μM): 50%
SMILES: CN(C)CCOc1ccc(/C=c2\[nH]c(=O)/c(=C/c3ccccc3)[nH]c2=O)cc1OCCN(C)C [Compound 1978, (3Z,6Z)-6-Benzylidene-3-(3,4-di-(2-dimethylaminoethoxy)benzylidene)-2,5-piperazinedione]

IC50 [1]: 13 µM
SMILES: CN(C)CCCOc1ccc(/C=c2\[nH]c(=O)/c(=C/c3cccc(F)c3)[nH]c2=O)cc1 [Compound 5373, (3Z,6Z)-6-(4-(3-Dimethylaminopropoxy)benzylidene)-3-(3-fluorobenzylidene)-2,5-piperazinedione]

IC50 [1]: 4.5 µM
SMILES: CN(C)CCCOc1ccc(/C=c2\[nH]c(=O)/c(=C/c3cccc(Br)c3)[nH]c2=O)cc1 [Compound 5375, (3Z,6Z)-3-(3-Bromobenzylidene)-6-(4-(3-dimethylaminopropoxy)benzylidene)-2,5-piperazinedione]

inhibition at 20 µM (20 μM (third part of Table 1)): 10%
SMILES: CC(=O)Nc1ccccc1/C=c1\[nH]c(=O)/c(=C/c2ccc(OCCCN(C)C)cc2)[nH]c1=O [Compound 5259]
